Reference: paper PMC3445516 (PLoS ONE, 2012)
Where two headings read alike, the source gives them in different places. Each block holds one compound with its values, some of them ahead of it.

Columns and labels:
RET(V804M) = biological target: T1, RET(V804M) (Homo sapiens, UniProt P07949, V804M); assay: Ambit kinase profiling, competition binding; settings: compound concentration 10 uM, read-out: Percent Competition
T1 construct: purchased Ambit Biosciences (KINOMEscan)
Source text: (§1) Supplement pone.0044653.s004.xls, sheet "Compound 122" | column: Percent Competition

PRKG1 = biological target: T2, PRKG1 (Homo sapiens, UniProt Q13976); assay: Ambit kinase profiling, competition binding; settings: compound concentration 10 uM, read-out: Percent Competition
T2 construct: purchased Ambit Biosciences (KINOMEscan)
Source text: as §1

PIK3CA(E545K) = biological target: T3, PIK3CA(E545K) (Homo sapiens, UniProt P42336, E545K); assay: Ambit kinase profiling, competition binding; settings: compound concentration 10 uM, read-out: Percent Competition
T3 construct: purchased Ambit Biosciences (KINOMEscan)
Source text: as §1

TAK1 = biological target: T4, TAK1 (Homo sapiens, UniProt O43318); assay: Ambit kinase profiling, competition binding; settings: compound concentration 10 uM, read-out: Percent Competition
T4 construct: purchased Ambit Biosciences (KINOMEscan)
Source text: as §1

TEC = biological target: T5, TEC (Homo sapiens, UniProt P42680); assay: Ambit kinase profiling, competition binding; settings: compound concentration 10 uM, read-out: Percent Competition
T5 construct: purchased Ambit Biosciences (KINOMEscan)
T5 sequence (P42680 whole entry): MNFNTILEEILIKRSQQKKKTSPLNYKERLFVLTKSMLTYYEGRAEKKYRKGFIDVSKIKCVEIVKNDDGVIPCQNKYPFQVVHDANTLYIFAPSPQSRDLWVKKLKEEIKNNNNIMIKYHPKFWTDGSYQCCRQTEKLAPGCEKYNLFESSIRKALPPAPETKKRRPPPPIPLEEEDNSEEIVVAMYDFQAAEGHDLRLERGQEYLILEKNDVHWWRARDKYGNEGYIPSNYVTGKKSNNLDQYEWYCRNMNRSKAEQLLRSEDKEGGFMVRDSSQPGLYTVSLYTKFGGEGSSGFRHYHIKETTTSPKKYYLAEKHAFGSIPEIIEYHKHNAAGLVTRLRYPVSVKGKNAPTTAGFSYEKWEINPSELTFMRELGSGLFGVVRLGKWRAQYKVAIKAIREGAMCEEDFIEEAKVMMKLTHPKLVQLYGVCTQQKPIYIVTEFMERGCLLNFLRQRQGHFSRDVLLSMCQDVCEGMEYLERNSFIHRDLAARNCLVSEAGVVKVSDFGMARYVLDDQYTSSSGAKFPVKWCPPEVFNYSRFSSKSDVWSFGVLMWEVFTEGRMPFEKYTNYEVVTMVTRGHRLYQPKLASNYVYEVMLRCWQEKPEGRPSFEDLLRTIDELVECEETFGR
Source text: as §1

ABL1(H396P) = biological target: T6, ABL1(H396P) (Homo sapiens, UniProt P00519, H396P); assay: Ambit kinase profiling, competition binding; settings: compound concentration 10 uM, read-out: Percent Competition
T6 construct: purchased Ambit Biosciences (KINOMEscan)
Source text: as §1

PHKG1 = biological target: T7, PHKG1 (Homo sapiens, UniProt Q16816); assay: Ambit kinase profiling, competition binding; settings: compound concentration 10 uM, read-out: Percent Competition
T7 construct: purchased Ambit Biosciences (KINOMEscan)
Source text: as §1

PFTAIRE2 = biological target: T8, PFTAIRE2 (Homo sapiens, UniProt Q96Q40); assay: Ambit kinase profiling, competition binding; settings: compound concentration 10 uM, read-out: Percent Competition
T8 construct: purchased Ambit Biosciences (KINOMEscan)
Source text: as §1

DRAK1 = biological target: T9, DRAK1 (Homo sapiens, UniProt Q9UEE5); assay: Ambit kinase profiling, competition binding; settings: compound concentration 10 uM, read-out: Percent Competition
T9 construct: purchased Ambit Biosciences (KINOMEscan)
Source text: as §1

ABL1(F317I) = biological target: T10, ABL1(F317I) (Homo sapiens, UniProt P00519, F317I); assay: Ambit kinase profiling, competition binding; settings: compound concentration 10 uM, read-out: Percent Competition
T10 construct: purchased Ambit Biosciences (KINOMEscan)
Source text: as §1

FAK = biological target: T11, FAK (Homo sapiens, UniProt Q05397); assay: Ambit kinase profiling, competition binding; settings: compound concentration 10 uM, read-out: Percent Competition
T11 construct: purchased Ambit Biosciences (KINOMEscan)
Source text: as §1

TSSK1B = biological target: T12, TSSK1B (Homo sapiens, UniProt Q9BXA7); assay: Ambit kinase profiling, competition binding; settings: compound concentration 10 uM, read-out: Percent Competition
T12 construct: purchased Ambit Biosciences (KINOMEscan)
T12 sequence (Q9BXA7 whole entry): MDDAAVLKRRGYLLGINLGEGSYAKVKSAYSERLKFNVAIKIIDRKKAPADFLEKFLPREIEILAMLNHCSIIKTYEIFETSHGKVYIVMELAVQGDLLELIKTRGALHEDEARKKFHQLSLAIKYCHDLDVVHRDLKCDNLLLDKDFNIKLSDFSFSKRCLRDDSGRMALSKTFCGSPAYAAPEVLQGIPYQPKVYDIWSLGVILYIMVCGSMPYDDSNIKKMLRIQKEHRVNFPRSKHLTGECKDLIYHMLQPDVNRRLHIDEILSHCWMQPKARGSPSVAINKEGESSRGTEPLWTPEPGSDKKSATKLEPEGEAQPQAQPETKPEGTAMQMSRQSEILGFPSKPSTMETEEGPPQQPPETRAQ
Source text: as §1

DLK = biological target: T13, DLK (Homo sapiens, UniProt Q12852); assay: Ambit kinase profiling, competition binding; settings: compound concentration 10 uM
T13 construct: purchased Ambit Biosciences (KINOMEscan)
T13 sequence (Q12852 whole entry): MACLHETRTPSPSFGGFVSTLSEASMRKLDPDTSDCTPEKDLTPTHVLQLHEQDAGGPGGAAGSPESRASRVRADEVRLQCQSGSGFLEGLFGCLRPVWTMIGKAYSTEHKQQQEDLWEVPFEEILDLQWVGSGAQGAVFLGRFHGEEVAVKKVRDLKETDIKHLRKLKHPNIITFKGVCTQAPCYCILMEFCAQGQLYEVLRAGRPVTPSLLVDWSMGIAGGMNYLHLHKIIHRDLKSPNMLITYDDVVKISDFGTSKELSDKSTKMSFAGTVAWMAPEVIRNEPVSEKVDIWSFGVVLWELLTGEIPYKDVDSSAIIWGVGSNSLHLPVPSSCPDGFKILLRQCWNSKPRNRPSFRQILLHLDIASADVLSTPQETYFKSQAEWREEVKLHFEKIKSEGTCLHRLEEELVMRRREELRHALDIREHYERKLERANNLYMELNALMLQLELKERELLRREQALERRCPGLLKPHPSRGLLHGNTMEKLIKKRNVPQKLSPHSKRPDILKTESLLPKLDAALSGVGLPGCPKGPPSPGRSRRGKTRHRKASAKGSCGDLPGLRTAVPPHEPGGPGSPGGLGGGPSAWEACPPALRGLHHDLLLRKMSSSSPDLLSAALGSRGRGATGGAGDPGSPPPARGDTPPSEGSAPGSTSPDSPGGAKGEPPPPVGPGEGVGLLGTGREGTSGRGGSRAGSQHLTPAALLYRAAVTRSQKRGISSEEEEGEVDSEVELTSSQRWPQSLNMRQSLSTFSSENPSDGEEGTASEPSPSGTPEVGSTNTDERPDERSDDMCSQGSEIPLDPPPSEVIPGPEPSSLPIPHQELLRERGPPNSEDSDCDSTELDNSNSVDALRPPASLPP
Source text: as §1

ITK = biological target: T14, ITK (Homo sapiens, UniProt Q08881); assay: Ambit kinase profiling, competition binding; settings: compound concentration 10 uM
T14 construct: purchased Ambit Biosciences (KINOMEscan)
Source text: as §1

LYN = biological target: T15, LYN (Homo sapiens, UniProt P07948); assay: Ambit kinase profiling, competition binding; settings: compound concentration 10 uM, read-out: Percent Competition
T15 construct: purchased Ambit Biosciences (KINOMEscan)
T15 sequence (P07948 whole entry): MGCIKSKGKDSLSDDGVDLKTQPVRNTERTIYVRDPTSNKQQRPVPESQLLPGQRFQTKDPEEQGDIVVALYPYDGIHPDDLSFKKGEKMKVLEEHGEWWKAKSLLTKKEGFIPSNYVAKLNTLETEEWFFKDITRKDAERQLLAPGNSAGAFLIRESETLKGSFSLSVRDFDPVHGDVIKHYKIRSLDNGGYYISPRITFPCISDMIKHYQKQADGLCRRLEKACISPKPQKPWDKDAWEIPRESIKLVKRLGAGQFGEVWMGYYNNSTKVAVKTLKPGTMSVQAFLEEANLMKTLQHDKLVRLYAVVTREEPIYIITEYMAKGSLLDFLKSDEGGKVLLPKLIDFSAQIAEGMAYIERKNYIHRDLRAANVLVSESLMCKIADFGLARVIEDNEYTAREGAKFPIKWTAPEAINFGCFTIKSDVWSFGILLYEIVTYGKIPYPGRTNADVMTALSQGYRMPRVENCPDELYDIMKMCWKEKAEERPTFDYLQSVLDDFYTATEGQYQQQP
Source text: as §1

PIM2 = biological target: T16, PIM2 (Homo sapiens, UniProt Q9P1W9); assay: Ambit kinase profiling, competition binding; settings: compound concentration 10 uM, read-out: Percent Competition
T16 construct: purchased Ambit Biosciences (KINOMEscan)
T16 sequence (Q9P1W9 whole entry): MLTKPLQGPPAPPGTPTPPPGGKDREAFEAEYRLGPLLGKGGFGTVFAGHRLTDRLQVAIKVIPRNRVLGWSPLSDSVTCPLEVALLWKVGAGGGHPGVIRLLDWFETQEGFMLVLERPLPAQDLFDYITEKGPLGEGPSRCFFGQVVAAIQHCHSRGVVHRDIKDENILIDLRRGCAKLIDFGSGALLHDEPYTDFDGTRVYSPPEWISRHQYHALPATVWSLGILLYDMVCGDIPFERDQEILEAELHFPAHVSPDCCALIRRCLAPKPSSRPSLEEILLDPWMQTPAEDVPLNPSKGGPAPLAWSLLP
Source text: as §1

ULK2 = biological target: T17, ULK2 (Homo sapiens, UniProt Q8IYT8); assay: Ambit kinase profiling, competition binding; settings: compound concentration 10 uM, read-out: Percent Competition
T17 construct: purchased Ambit Biosciences (KINOMEscan)
Source text: as §1

PAK2 = biological target: T18, PAK2 (Homo sapiens, UniProt Q13177); assay: Ambit kinase profiling, competition binding; settings: compound concentration 10 uM, read-out: Percent Competition
T18 construct: purchased Ambit Biosciences (KINOMEscan)
Source text: as §1

MLCK = biological target: T19, MLCK (Homo sapiens, UniProt Q32MK0); assay: Ambit kinase profiling, competition binding; settings: compound concentration 10 uM, read-out: Percent Competition
T19 construct: purchased Ambit Biosciences (KINOMEscan)
T19 sequence (Q32MK0 whole entry): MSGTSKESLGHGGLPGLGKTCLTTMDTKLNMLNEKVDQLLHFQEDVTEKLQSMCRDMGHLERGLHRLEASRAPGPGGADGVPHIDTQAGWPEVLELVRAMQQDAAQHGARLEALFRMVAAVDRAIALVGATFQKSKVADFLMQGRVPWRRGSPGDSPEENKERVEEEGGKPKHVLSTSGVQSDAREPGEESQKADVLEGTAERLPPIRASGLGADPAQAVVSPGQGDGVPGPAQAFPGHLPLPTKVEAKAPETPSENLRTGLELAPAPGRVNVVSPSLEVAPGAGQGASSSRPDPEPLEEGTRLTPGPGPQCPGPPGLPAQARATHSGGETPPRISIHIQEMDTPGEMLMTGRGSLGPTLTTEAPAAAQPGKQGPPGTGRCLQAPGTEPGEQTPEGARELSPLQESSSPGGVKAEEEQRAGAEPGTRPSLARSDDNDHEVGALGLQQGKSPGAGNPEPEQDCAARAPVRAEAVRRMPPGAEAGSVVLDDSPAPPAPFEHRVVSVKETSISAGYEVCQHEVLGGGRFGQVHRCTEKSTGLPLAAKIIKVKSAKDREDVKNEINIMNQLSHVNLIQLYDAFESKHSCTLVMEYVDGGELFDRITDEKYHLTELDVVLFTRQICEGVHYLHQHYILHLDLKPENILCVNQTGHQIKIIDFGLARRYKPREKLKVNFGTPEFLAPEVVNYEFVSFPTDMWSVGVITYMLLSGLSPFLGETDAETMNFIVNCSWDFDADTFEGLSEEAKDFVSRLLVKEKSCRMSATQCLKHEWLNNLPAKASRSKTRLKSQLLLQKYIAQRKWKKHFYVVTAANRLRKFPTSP
Source text: as §1

CDK8 = biological target: T20, CDK8 (Homo sapiens, UniProt P49336); assay: Ambit kinase profiling, competition binding; settings: compound concentration 10 uM
T20 construct: purchased Ambit Biosciences (KINOMEscan)
T20 sequence (P49336 whole entry): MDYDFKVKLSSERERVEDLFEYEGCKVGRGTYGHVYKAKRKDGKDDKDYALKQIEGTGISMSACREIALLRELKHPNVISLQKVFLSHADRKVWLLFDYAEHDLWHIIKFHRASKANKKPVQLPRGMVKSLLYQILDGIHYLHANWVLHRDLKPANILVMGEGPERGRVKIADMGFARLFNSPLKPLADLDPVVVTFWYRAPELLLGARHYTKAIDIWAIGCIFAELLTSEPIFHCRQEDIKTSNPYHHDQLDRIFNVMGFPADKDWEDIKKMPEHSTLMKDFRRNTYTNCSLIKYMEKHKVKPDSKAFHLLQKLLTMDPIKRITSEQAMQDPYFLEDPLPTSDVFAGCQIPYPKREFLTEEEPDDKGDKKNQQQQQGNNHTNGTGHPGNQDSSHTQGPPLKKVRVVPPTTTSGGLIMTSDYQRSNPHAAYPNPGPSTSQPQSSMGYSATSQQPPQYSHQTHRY
Source text: as §1

[1] = biological target: T21, recombinant GST-tagged human protein kinase D1 (PKD1) (Homo sapiens, UniProt Q15139); assay: In vitro radiometric PKD1 kinase assay; assay type: biochemical; settings: read-out: Inhibition of PKD1
T21 construct: purchased Enzo Life sciences (Farmingdale, NY)
T21 sequence (Q15139 1-912): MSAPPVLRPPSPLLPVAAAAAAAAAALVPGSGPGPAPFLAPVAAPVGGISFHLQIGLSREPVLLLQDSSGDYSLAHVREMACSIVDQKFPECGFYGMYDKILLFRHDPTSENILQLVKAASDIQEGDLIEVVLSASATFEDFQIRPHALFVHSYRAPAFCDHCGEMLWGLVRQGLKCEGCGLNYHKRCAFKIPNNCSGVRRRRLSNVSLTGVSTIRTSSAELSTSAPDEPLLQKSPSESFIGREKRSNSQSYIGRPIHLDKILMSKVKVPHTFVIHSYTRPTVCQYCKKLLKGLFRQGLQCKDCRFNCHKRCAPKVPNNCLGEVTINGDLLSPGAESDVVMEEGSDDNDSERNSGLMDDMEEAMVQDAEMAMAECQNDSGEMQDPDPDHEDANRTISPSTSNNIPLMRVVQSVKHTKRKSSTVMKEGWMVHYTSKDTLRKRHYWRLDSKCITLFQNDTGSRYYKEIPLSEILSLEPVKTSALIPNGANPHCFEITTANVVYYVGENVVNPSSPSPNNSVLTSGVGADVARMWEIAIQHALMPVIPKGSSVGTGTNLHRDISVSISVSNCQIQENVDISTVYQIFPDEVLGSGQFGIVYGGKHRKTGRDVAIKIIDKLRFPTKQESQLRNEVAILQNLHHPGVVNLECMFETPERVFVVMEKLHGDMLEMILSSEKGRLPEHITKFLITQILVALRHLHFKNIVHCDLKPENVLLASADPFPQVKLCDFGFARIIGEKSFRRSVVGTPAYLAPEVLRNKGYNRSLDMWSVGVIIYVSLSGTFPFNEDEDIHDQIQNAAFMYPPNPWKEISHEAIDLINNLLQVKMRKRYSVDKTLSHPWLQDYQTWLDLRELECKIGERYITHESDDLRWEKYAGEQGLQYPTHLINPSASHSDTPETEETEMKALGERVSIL
Method: All compounds were given distinct UPCMLD (University of Pittsburgh Center for Chemical Methodologies and Library Development) IDs and were then assigned numerical IDs for convenient data display. Evaluation of each compound was carried out in triplicate at a single concentration (1 µM). Our previously described PKD1 inhibitor, kb-NB142-70, and DMSO (solvent alone) were used as positive and negative controls, respectively. Percent residual kinase activity was calculated based on that of the negative control (DMSO).
Kinase active recombinant GST-tagged human protein kinase D1 (PKD1) was obtained from Enzo Life sciences (Farmingdale, NY). DMSO was purchased from Sigma. Recombinant PKCα, PKCδ and CAMKIIα were obtained from SignalChem (Richmond, BC, Canada). ATP was purchased from Fisher Scientific. HDAC5 substrate peptide was synthesized by Biobasic Canada Inc. (Markham, ON). Myelin basic protein 4–14 was purchased from AnaSpec Inc. (Fremont, CA). The targeted kinase inhibitor library was obtained from Hoffmann-La Roche, Inc.
1.2 µg of HDAC-5 was used as substrate in the reaction. Phosphorylation of HDAC5 was detected in a kinase reaction having 1 µCi [γ-^32P] […] The reaction was incubated at 30° for 10 minutes and 25 µL of the reaction was spotted on Whatman P81 filter paper. The filter paper was washed 3 times in 0.5% phosphoric acid, air dried and counted using Beckman LS6500 multipurpose scintillation counter. Percent PKD1 inhibition was graphed using GraphPad Prism software 5.0.

T1 sequence (P07949 29-1114 V804M): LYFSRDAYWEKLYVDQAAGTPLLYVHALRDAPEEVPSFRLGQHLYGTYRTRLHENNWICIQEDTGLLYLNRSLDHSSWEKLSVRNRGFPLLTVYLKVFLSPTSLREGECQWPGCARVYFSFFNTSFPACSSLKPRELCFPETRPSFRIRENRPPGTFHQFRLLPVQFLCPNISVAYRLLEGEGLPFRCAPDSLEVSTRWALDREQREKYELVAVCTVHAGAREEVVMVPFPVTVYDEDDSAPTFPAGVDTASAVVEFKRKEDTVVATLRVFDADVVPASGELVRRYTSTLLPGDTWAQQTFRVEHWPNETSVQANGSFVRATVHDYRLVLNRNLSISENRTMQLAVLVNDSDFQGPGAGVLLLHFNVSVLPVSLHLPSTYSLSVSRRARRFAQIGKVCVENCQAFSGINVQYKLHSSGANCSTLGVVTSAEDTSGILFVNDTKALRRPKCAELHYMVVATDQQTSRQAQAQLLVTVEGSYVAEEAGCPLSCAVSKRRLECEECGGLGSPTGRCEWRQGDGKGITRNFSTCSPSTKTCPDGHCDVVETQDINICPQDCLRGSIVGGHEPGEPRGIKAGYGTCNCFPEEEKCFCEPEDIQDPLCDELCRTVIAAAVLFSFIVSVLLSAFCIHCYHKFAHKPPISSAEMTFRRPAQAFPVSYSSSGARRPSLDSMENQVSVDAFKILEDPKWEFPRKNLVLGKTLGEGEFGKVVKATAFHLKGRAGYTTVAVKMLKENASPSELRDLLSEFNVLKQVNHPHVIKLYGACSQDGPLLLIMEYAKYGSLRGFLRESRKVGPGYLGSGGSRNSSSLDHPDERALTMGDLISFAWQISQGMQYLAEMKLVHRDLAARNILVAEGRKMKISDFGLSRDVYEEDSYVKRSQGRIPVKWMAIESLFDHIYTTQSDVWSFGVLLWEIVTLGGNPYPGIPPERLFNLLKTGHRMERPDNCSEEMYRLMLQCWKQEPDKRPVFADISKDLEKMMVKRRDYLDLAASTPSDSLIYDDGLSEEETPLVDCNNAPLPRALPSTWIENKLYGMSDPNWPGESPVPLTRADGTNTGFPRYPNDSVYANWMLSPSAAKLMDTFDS

inhibition at 10 µM (RET(V804M)): < 50% | inhibition at 10 µM (PRKG1): < 50% | inhibition at 10 µM (PIK3CA(E545K)): < 50% | inhibition at 10 µM (TAK1): < 50% | inhibition at 10 µM (TEC): < 50% | inhibition at 10 µM (ABL1(H396P)): < 50% | inhibition at 10 µM (PHKG1): < 50% | inhibition at 10 µM (PFTAIRE2): < 50% | inhibition at 10 µM (DRAK1): < 50% | inhibition at 10 µM (ABL1(F317I)): < 50% | inhibition at 10 µM (FAK): < 50% | inhibition at 10 µM (TSSK1B): < 50% | Percent Competition (DLK): <50% | Percent Competition (ITK): <50% | inhibition at 10 µM (LYN): < 50% | inhibition at 10 µM (PIM2): < 50% | inhibition at 10 µM (ULK2): < 50% | inhibition at 10 µM (PAK2): < 50% | inhibition at 10 µM (MLCK): < 50% | Percent Competition (CDK8): <50%
Compound: Fc1ccc(-c2c(-c3ccncc3)[nH]c3nccnc23)cc1 [RO1155697-000-005]

inhibition at 1 µM ([1]; 1 µM, triplicate determinations): 62%
Compound: Fc1ccc(-c2c(-c3ccncc3)[nH]c3nccnc23)cc1 [Compound 122]

Compound: CC(O)CNc1cc(-c2[nH]c3cccnc3c2-c2ccc(F)cc2)ccn1 (stereo not shown) [Compound 140]
inhibition at 1 µM [1]: 80%
